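A five-concentration, 48-hour dose response in 96-well plates underlies each endpoint, interpolated linearly between surrounding concentrations. GI50 = concentration required for 50% inhibition of growth. TGI denotes the concentration required for complete inhibition of growth.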
How the values were obtained:
Assay in all cases: inhibition of tumour cell growth, NCI panel, 48 h
786-0 renal = test system: 786-0 renal
A498 renal = test system: A498 renal
A549 NSCLC = test system: A549 NSCLC
ACHN renal = test system: ACHN renal
BT-549 breast = test system: BT-549 breast
CAKI-1 renal = test system: CAKI-1 renal
CCRF-CEM leukemia = test system: CCRF-CEM leukemia
COLO 205 colon = test system: COLO 205 colon
DU-145 prostate = test system: DU-145 prostate
EKVX NSCLC = test system: EKVX NSCLC
HCC-2998 colon = test system: HCC-2998 colon
HCT-116 colon = test system: HCT-116 colon
HCT-15 colon = test system: HCT-15 colon
HL-60(TB) leukemia = test system: HL-60(TB) leukemia
HOP-62 NSCLC = test system: HOP-62 NSCLC
HOP-92 NSCLC = test system: HOP-92 NSCLC
HS 578T breast = test system: HS 578T breast
HT29 colon = test system: HT29 colon
IGROV1 ovarian = test system: IGROV1 ovarian
K-562 leukemia = test system: K-562 leukemia
KM12 colon = test system: KM12 colon
LOX IMVI melanoma = test system: LOX IMVI melanoma
M14 melanoma = test system: M14 melanoma
MALME-3M melanoma = test system: MALME-3M melanoma
MCF7 breast = test system: MCF7 breast
MDA-MB-231 breast = test system: MDA-MB-231 breast
MDA-MB-435 = test system: MDA-MB-435
MOLT-4 leukemia = test system: MOLT-4 leukemia
NCI-H226 lung = test system: NCI-H226 lung
NCI-H23 lung = test system: NCI-H23 lung
NCI-H460 lung = test system: NCI-H460 lung
NCI-H522 lung = test system: NCI-H522 lung
NCI/ADR-RES ovarian = test system: NCI/ADR-RES ovarian
OVCAR-3 ovarian = test system: OVCAR-3 ovarian
OVCAR-5 ovarian = test system: OVCAR-5 ovarian
OVCAR-8 ovarian = test system: OVCAR-8 ovarian
PC-3 prostate = test system: PC-3 prostate
RPMI-8226 leukemia = test system: RPMI-8226 leukemia
RXF 393 renal = test system: RXF 393 renal
SF-268 CNS = test system: SF-268 CNS
SF-295 CNS = test system: SF-295 CNS
SF-539 CNS = test system: SF-539 CNS
SK-MEL-2 melanoma = test system: SK-MEL-2 melanoma
SK-MEL-28 melanoma = test system: SK-MEL-28 melanoma
SK-MEL-5 melanoma = test system: SK-MEL-5 melanoma
SK-OV-3 ovarian = test system: SK-OV-3 ovarian
SN12C renal = test system: SN12C renal
SNB-19 CNS = test system: SNB-19 CNS
SNB-75 CNS = test system: SNB-75 CNS
SR leukemia = test system: SR leukemia
SW-620 colon = test system: SW-620 colon
T-47D breast = test system: T-47D breast
TK-10 renal = test system: TK-10 renal
U251 CNS = test system: U251 CNS
UACC-257 melanoma = test system: UACC-257 melanoma
UACC-62 melanoma = test system: UACC-62 melanoma
UO-31 renal = test system: UO-31 renal

## N#Cc1nn(-c2cc(=O)[nH]c3ccc(Br)cc23)c(N)c1C#N
786-0 renal
  GI50: > 100 µM
  TGI: > 100 µM
A498 renal
  GI50: > 100 µM
  TGI: > 100 µM
A549 NSCLC
  GI50: > 100 µM
  TGI: > 100 µM
ACHN renal
  GI50: > 100 µM
  TGI: > 100 µM
BT-549 breast
  GI50: > 100 µM
  TGI: > 100 µM
CAKI-1 renal
  GI50: > 100 µM
  TGI: > 100 µM
CCRF-CEM leukemia
  GI50: > 100 µM
  TGI: > 100 µM
COLO 205 colon
  GI50: > 100 µM
  TGI: > 100 µM
DU-145 prostate
  GI50: > 100 µM
  TGI: > 100 µM
EKVX NSCLC
  GI50: 4.6 µM
  TGI: > 100 µM
HCC-2998 colon
  GI50: > 100 µM
  TGI: > 100 µM
HCT-116 colon
  GI50: > 100 µM
  TGI: > 100 µM
HCT-15 colon
  GI50: > 100 µM
  TGI: > 100 µM
HL-60(TB) leukemia
  GI50: > 100 µM
  TGI: > 100 µM
HOP-62 NSCLC
  GI50: > 100 µM
  TGI: > 100 µM
HOP-92 NSCLC
  GI50: > 100 µM
  TGI: > 100 µM
HS 578T breast
  GI50: 64.9 µM
  TGI: > 100 µM
HT29 colon
  GI50: > 100 µM
  TGI: > 100 µM
IGROV1 ovarian
  GI50: 37.9 µM
  TGI: > 100 µM
K-562 leukemia
  GI50: > 100 µM
  TGI: > 100 µM
KM12 colon
  GI50: > 100 µM
  TGI: > 100 µM
LOX IMVI melanoma
  GI50: > 100 µM
  TGI: > 100 µM
M14 melanoma
  GI50: > 100 µM
  TGI: > 100 µM
MALME-3M melanoma
  GI50: > 100 µM
  TGI: > 100 µM
MCF7 breast
  GI50: 64.1 µM
  TGI: > 100 µM
MDA-MB-231 breast
  GI50: > 100 µM
  TGI: > 100 µM
MDA-MB-435
  GI50: > 100 µM
  TGI: > 100 µM
MOLT-4 leukemia
  GI50: > 100 µM
  TGI: > 100 µM
NCI-H226 lung
  GI50: > 100 µM
  TGI: > 100 µM
NCI-H23 lung
  GI50: 51.5 µM
  TGI: > 100 µM
NCI-H460 lung
  GI50: > 100 µM
  TGI: > 100 µM
NCI-H522 lung
  GI50: 22.7 µM
  TGI: 86.4 µM
NCI/ADR-RES ovarian
  GI50: > 100 µM
  TGI: > 100 µM
OVCAR-3 ovarian
  GI50: > 100 µM
  TGI: > 100 µM
OVCAR-5 ovarian
  GI50: > 100 µM
  TGI: > 100 µM
OVCAR-8 ovarian
  GI50: > 100 µM
  TGI: > 100 µM
PC-3 prostate
  GI50: > 100 µM
  TGI: > 100 µM
RPMI-8226 leukemia
  GI50: > 100 µM
  TGI: > 100 µM
RXF 393 renal
  GI50: > 100 µM
  TGI: > 100 µM
SF-268 CNS
  GI50: 67 µM
  TGI: > 100 µM
SF-295 CNS
  GI50: > 100 µM
  TGI: > 100 µM
SF-539 CNS
  GI50: 51.7 µM
  TGI: > 100 µM
SK-MEL-2 melanoma
  GI50: > 100 µM
  TGI: > 100 µM
SK-MEL-28 melanoma
  GI50: > 100 µM
  TGI: > 100 µM
SK-MEL-5 melanoma
  GI50: > 100 µM
  TGI: > 100 µM
SK-OV-3 ovarian
  GI50: > 100 µM
  TGI: > 100 µM
SN12C renal
  GI50: > 100 µM
  TGI: > 100 µM
SNB-19 CNS
  GI50: > 100 µM
  TGI: > 100 µM
SNB-75 CNS
  GI50: 57.1 µM
  TGI: > 100 µM
SR leukemia
  GI50: 74.2 µM
  TGI: > 100 µM
SW-620 colon
  GI50: > 100 µM
  TGI: > 100 µM
T-47D breast
  GI50: 6.46 µM
  TGI: > 100 µM
TK-10 renal
  GI50: > 100 µM
  TGI: > 100 µM
U251 CNS
  GI50: 88.1 µM
  TGI: > 100 µM
UACC-257 melanoma
  GI50: > 100 µM
  TGI: > 100 µM
UACC-62 melanoma
  GI50: > 100 µM
  TGI: > 100 µM
UO-31 renal
  GI50: > 100 µM
  TGI: > 100 µM

Reference: PubChem BioAssay (NCI)
